Data taken from US20250382305A1 (PTC THERAPEUTICS, INC., priority 2022, published 2025).

Key:
[1] = test system: Total ATXN3 (tATXN3) protein; test: Endogenous Total ATXN3 (tATXN3) Protein Assay (MSD immunoassay of cell lysates); format: cell-based; details: average IC50, total ATXN3 protein in cell lysate after 48 h with compound (Table 1)
Method in brief: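 By electrochemiluminescent MSD sandwich immunoassay (mouse monoclonal capture, rabbit monoclonal and SULFO-TAG anti-rabbit detection), endogenous ATXN3 was quantified in lysates of cells treated 48 h at 37° C at 10,000 cells/well. Treatment used a 7-point 3.16-fold duplicate dilution series, with average IC50 grouped into star categories.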

ATXN3 pre-mRNA = test: RT-qPCR Assay to Quantify Exon 4 Skipping in ATXN3 pre-mRNA in Cells; format: cell-based; details: percent exon 4 skipping in ATXN3 pre-mRNA, RT-qPCR of cell lysates; average IC50
Method in brief: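 IC50 derives from a dose-response fit of percent exon 4 skipping, quantified by RT-qPCR on crude lysates. Compounds tested as 7-point 3.16-fold dilutions in duplicate; cells (10,000/well) were exposed for 24 h at 37 °C before lysis.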

## N[C@@H]1CCCC(F)(F)[C@H]1c1sc2c(NCc3cccs3)cc(Cl)nc2c1Cl [Compound 409, 2-((1S,6R)-6-amino-2,2-difluorocyclohexyl)-3,5-dichloro-N-(thiophen-2-ylmethyl)thieno[3,2-b]pyridin-7-amine]
[1]
  IC50: 30 to 300 nM
ATXN3 pre-mRNA
  IC50: 30 to 300 nM

## 2-((1R,6S)-6-amino-2,2-difluorocyclohexyl)-3-bromo-N-((E)-but-2-en-1-yl)-5-chlorothieno[3,2-b]pyridin-7-amine and 2-((1S,6R)-6-amino-2,2-difluorocyclohexyl)-3-bromo-N-((E)-but-2-en-1-yl)-5-chlorothieno[3,2-b]pyridin-7-amine [Compound 425]
[1]
  IC50: > 1000 nM
ATXN3 pre-mRNA
  IC50: 300 to 1000 nM

## N[C@@H]1CCCO[C@@H]1c1sc2c(NCc3cccs3)cc(Cl)nc2c1Cl [Compound 17, 2-((2S,3R)-3-aminotetrahydro-2H-pyran-2-yl)-3,5-dichloro-N-(thiophen-2-ylmethyl)thieno[3,2-b]pyridin-7-amine]
[1]
  IC50: > 1000 nM
ATXN3 pre-mRNA
  IC50: > 1000 nM

## N[C@@H]1CCCCC1c1sc2c(NCc3cccs3)cc(Cl)nc2c1C(F)F.N[C@H]1CCCCC1c1sc2c(NCc3cccs3)cc(Cl)nc2c1C(F)F (mixture of isomers) [Compound 279, 2-((2R)-2-aminocyclohexyl)-5-chloro-3-(difluoromethyl)-N-(thiophen-2-ylmethyl)thieno[3,2-b]pyridin-7-amine and 2-((2S)-2-aminocyclohexyl)-5-chloro-3-(difluoromethyl)-N-(thiophen-2-ylmethyl)thieno[3,2-b]pyridin-7-amine]
[1]
  IC50: 30 to 300 nM
ATXN3 pre-mRNA
  IC50: 30 to 300 nM

## N[C@H]1CCCCC[C@@H]1c1sc2c(NCc3cccs3)cc(Cl)nc2c1I [Compound 163, 2-((1S,2S)-2-aminocycloheptyl)-5-chloro-3-iodo-N-(thiophen-2-ylmethyl)thieno[3,2-b]pyridin-7-amine]
[1]
  IC50: 30 to 300 nM
ATXN3 pre-mRNA
  IC50: ≤ 30 nM

## N[C@H]1CC=CC[C@@H]1c1sc2c(NCc3ccncc3F)cc(Cl)nc2c1Cl [Compound 239, 2-((1S,6S)-6-aminocyclohex-3-en-1-yl)-3,5-dichloro-N-((3-fluoropyridin-4-yl)methyl)thieno[3,2-b]pyridin-7-amine]
[1]
  IC50: ≤ 30 nM
ATXN3 pre-mRNA
  IC50: ≤ 30 nM

## 2-((1R,2R)-2-amino-5,5-dimethylcyclohexyl)-3-bromo-5-chloro-N-(thiophen-2-ylmethyl)thieno[3,2-b]pyridin-7-amine and 2-((1S,2S)-2-amino-5,5-dimethylcyclohexyl)-3-bromo-5-chloro-N-(thiophen-2-ylmethyl)thieno[3,2-b]pyridin-7-amine [Compound 149]
[1]
  IC50: 30 to 300 nM
ATXN3 pre-mRNA
  IC50: 30 to 300 nM

## N[C@H]1CCCO[C@@H]1c1c(Cl)c2nc(Cl)cc(NCc3cccs3)c2n1C(F)F [Compound 262, 2-((2S,3S)-3-aminotetrahydro-2H-pyran-2-yl)-3,5-dichloro-1-(difluoromethyl)-N-(thiophen-2-ylmethyl)-1H-pyrrolo[3,2-b]pyridin-7-amine]
[1]
  IC50: 30 to 300 nM
ATXN3 pre-mRNA
  IC50: 30 to 300 nM

## Cc1c([C@H]2CC=CC[C@@H]2N)sc2c(NCc3cccs3)cc(C#N)nc12 [Compound 246, 2-((1S,6S)-6-aminocyclohex-3-en-1-yl)-3-methyl-7-((thiophen-2-ylmethyl)amino)thieno[3,2-b]pyridine-5-carbonitrile]
[1]
  IC50: ≤ 30 nM
ATXN3 pre-mRNA
  IC50: 30 to 300 nM

## CC#CCNc1cc(Cl)nc2c(Cl)c([C@H]3CCCC[C@@H]3N)sc12 [Compound 308, 2-((1S,2S)-2-aminocyclohexyl)-N-(but-2-yn-1-yl)-3,5-dichlorothieno[3,2-b]pyridin-7-amine]
[1]
  IC50: 30 to 300 nM
ATXN3 pre-mRNA
  IC50: 30 to 300 nM

## 2-((3R,4S)-3-aminotetrahydro-2H-pyran-4-yl)-3,5-dichloro-N-(furan-2-ylmethyl)thieno[3,2-b]pyridin-7-amine and 2-((3S,4R)-3-aminotetrahydro-2H-pyran-4-yl)-3,5-dichloro-N-(furan-2-ylmethyl)thieno[3,2-b]pyridin-7-amine [Compound 314]
[1]
  IC50: 30 to 300 nM
ATXN3 pre-mRNA
  IC50: 30 to 300 nM

## N[C@@H]1CC=CC[C@H]1c1sc2c(NCc3ccncc3F)nc(Cl)nc2c1Cl [Compound 439, 6-((1R,6R)-6-aminocyclohex-3-en-1-yl)-2,7-dichloro-N-((3-fluoropyridin-4-yl)methyl)thieno[3,2-d]pyrimidin-4-amine]
[1]
  IC50: 300 to 1000 nM
ATXN3 pre-mRNA
  IC50: 300 to 1000 nM

## N[C@@H]1CCC[C@H]1c1sc2c(NCc3ccccc3)cc(Cl)nc2c1Cl [Compound 167, 2-((1R,2R)-2-aminocyclopentyl)-N-benzyl-3,5-dichlorothieno[3,2-b]pyridin-7-amine]
[1]
  IC50: 300 to 1000 nM
ATXN3 pre-mRNA
  IC50: 30 to 300 nM

## N[C@H]1CCCCCC[C@H]1c1sc2c(NCc3cccs3)cc(Cl)nc2c1Cl [Compound 91, 2-((1R,2S)-2-aminocyclooctyl)-3,5-dichloro-N-(thiophen-2-ylmethyl)thieno[3,2-b]pyridin-7-amine]
[1]
  IC50: > 1000 nM
ATXN3 pre-mRNA
  IC50: > 1000 nM

## Cc1c([C@H]2CC=C(C(=O)N(C)C)C[C@@H]2N)sc2c(NCc3cccs3)cc(Cl)nc12 [Compound 312, (4S,5S)-5-amino-4-(5-chloro-3-methyl-7-((thiophen-2-ylmethyl)amino)thieno[3,2-b]pyridin-2-yl)-N,N-dimethylcyclohex-1-ene-1-carboxamide]
[1]
  IC50: 30 to 300 nM
ATXN3 pre-mRNA
  IC50: 30 to 300 nM

## N[C@H]1CCC[C@@H]1c1sc2c(NCc3cccs3)cc(Cl)nc2c1Cl [Compound 1, 2-((1S,2S)-2-aminocyclopentyl)-3,5-dichloro-N-(thiophen-2-ylmethyl)thieno[3,2-b]pyridin-7-amine]
[1]
  IC50: ≤ 30 nM
ATXN3 pre-mRNA
  IC50: ≤ 30 nM

## CCOC(=O)C1=CC[C@H](c2sc3c(NCc4cccs4)cc(Cl)nc3c2C)[C@@H](N)C1 [Compound 277, ethyl (4S,5S)-5-amino-4-(5-chloro-3-methyl-7-((thiophen-2-ylmethyl)amino)thieno[3,2-b]pyridin-2-yl)cyclohex-1-ene-1-carboxylate]
[1]
  IC50: 30 to 300 nM
ATXN3 pre-mRNA
  IC50: ≤ 30 nM

## N[C@H]1CCCC[C@@H]1c1sc2c(NCc3cccs3)cc(Cl)nc2c1C1CC1 [Compound 130, 2-((1S,2S)-2-aminocyclohexyl)-5-chloro-3-cyclopropyl-N-(thiophen-2-ylmethyl)thieno[3,2-b]pyridin-7-amine]
[1]
  IC50: 30 to 300 nM
ATXN3 pre-mRNA
  IC50: 30 to 300 nM

## N[C@@H]1CCCC[C@H]1c1sc2c(NCc3ccco3)cc(Cl)nc2c1Cl [Compound 296, 2-((1R,2R)-2-aminocyclohexyl)-3,5-dichloro-N-(furan-2-ylmethyl)thieno[3,2-b]pyridin-7-amine]
[1]
  IC50: 30 to 300 nM
ATXN3 pre-mRNA
  IC50: 30 to 300 nM

## N[C@@H]1CCCC[C@H]1c1sc2c(NCc3ccncc3)cc(Cl)nc2c1Br [Compound 432, 2-((1R,2R)-2-aminocyclohexyl)-3-bromo-5-chloro-N-(pyridin-4-ylmethyl)thieno[3,2-b]pyridin-7-amine]
[1]
  IC50: 30 to 300 nM
ATXN3 pre-mRNA
  IC50: 30 to 300 nM

## CC#CCNc1cc(Cl)nc2c(Br)c([C@H]3CCOC[C@@H]3N)sc12 [Compound 398, 2-((3R,4S)-3-aminotetrahydro-2H-pyran-4-yl)-3-bromo-N-(but-2-yn-1-yl)-5-chlorothieno[3,2-b]pyridin-7-amine]
[1]
  IC50: 300 to 1000 nM
ATXN3 pre-mRNA
  IC50: 30 to 300 nM

## N[C@H]1CCCCC[C@H]1c1sc2c(NCc3cccs3)cc(Cl)nc2c1Br [Compound 73, 2-((1R,2S)-2-aminocycloheptyl)-3-bromo-5-chloro-N-(thiophen-2-ylmethyl)thieno[3,2-b]pyridin-7-amine]
[1]
  IC50: 300 to 1000 nM
ATXN3 pre-mRNA
  IC50: 300 to 1000 nM

## 5-(5-chloro-2-((1R,6R)-6-(dimethylamino)cyclohex-3-en-1-yl)-7-((thiophen-2-ylmethyl)amino)thieno[3,2-b]pyridin-3-yl)pent-4-yn-1-ol and 5-(5-chloro-2-((1S,6S)-6-(dimethylamino)cyclohex-3-en-1-yl)-7-((thiophen-2-ylmethyl)amino)thieno[3,2-b]pyridin-3-yl)pent-4-yn-1-ol [Compound 454]
[1]
  IC50: 300 to 1000 nM
ATXN3 pre-mRNA
  IC50: 300 to 1000 nM

## COC(=O)CNc1cc(Cl)nc2c(Br)c([C@H]3CC=CC[C@@H]3N)sc12 [Compound 366, methyl (2-((1S,6S)-6-aminocyclohex-3-en-1-yl)-3-bromo-5-chlorothieno[3,2-b]pyridin-7-yl)glycinate]
[1]
  IC50: 30 to 300 nM
ATXN3 pre-mRNA
  IC50: 30 to 300 nM

## N[C@H]1CCCC(F)(F)[C@@H]1c1sc2c(NCc3cccs3)cc(Cl)nc2c1Cl [Compound 291, 2-((1R,6S)-6-amino-2,2-difluorocyclohexyl)-3,5-dichloro-N-(thiophen-2-ylmethyl)thieno[3,2-b]pyridin-7-amine]
[1]
  IC50: 30 to 300 nM
ATXN3 pre-mRNA
  IC50: 30 to 300 nM

## CN(Cc1cccs1)c1cc(Cl)nc2c(C#CCCCO)c([C@H]3CC=CC[C@@H]3N)sc12 [Compound 349, 5-(2-((1S,6S)-6-aminocyclohex-3-en-1-yl)-5-chloro-7-(methyl(thiophen-2-ylmethyl)amino)thieno[3,2-b]pyridin-3-yl)pent-4-yn-1-ol]
[1]
  IC50: 30 to 300 nM
ATXN3 pre-mRNA
  IC50: 30 to 300 nM

## 2-((1R,6S)-6-amino-2,2-difluorocyclohexyl)-N-(but-2-yn-1-yl)-5-chloro-3-iodothieno[3,2-b]pyridin-7-amine and 2-((1S,6R)-6-amino-2,2-difluorocyclohexyl)-N-(but-2-yn-1-yl)-5-chloro-3-iodothieno[3,2-b]pyridin-7-amine [Compound 383]
[1]
  IC50: 30 to 300 nM
ATXN3 pre-mRNA
  IC50: 30 to 300 nM

## N[C@@H]1CC=CC[C@H]1c1c(I)c2nc(Cl)cc(NCc3cccs3)c2n1C(F)F [Compound 427, 2-((1R,6R)-6-aminocyclohex-3-en-1-yl)-5-chloro-1-(difluoromethyl)-3-iodo-N-(thiophen-2-ylmethyl)-1H-pyrrolo[3,2-b]pyridin-7-amine]
[1]
  IC50: 30 to 300 nM
ATXN3 pre-mRNA
  IC50: ≤ 30 nM
